Experimental data reported in patent US8946426B2, “Substituted bicyclic heterocyclic compounds as gamma secretase modulators” (Janssen Pharmaceuticals, Inc., priority 2009, dated 2015).

Legend:
[1] = tested on: Aβ42; assay: Method 1: Aβ42 sandwich ELISA in supernatant of SKNBE2 cells carrying APP 695-wild type (Tables 7a, 7b); format: cell-based
Method: (§1) Screening was carried out using SKNBE2 cells carrying the APP 695-wild type, grown in Dulbecco's Modified Eagle's Medium/Nutrient mixture F-12 (DMEM/NUT-mix F-12) (HAM) provided by Gibco (cat no. 31330-38) containing 5% Serum/Fe supplemented with 1% non-essential amino acids. Cells were grown to near confluency.
(§2) The screening was performed using the assay as described in Citron et al (1997) Nature Medicine 3: 67. Briefly, cells were plated in a 96-well plate at about 10^5 cells/ml one day prior to addition of compounds. Compounds were added to the cells in Ultraculture (Lonza, BE12-725F) supplemented with 1% glutamine (Invitrogen, 25030-024) for 18 Hours. The media were assayed by two sandwich ELISAs, for Aβ42 and Aβtotal. Toxicity of the compounds was assayed by WST-1 cell proliferation reagent (Roche, 1 644 807) according to the manufacturer's protocol.
To quantify the amount of Aβ42 in the cell supernatant, commercially available Enzyme-Linked-Immunosorbent-Assay (ELISA) kits were used (Innotest® β-Amyloid(1-42), Innogenetics N.V., Ghent, Belgium). The Aβ42 ELISA was performed essentially according to the manufacturer's protocol. Briefly, the standards (dilutions of synthetic Aβ1-42) were prepared in polypropylene Eppendorf with final concentrations of 8000 down to 3.9 pg/ml (½ dilution step). Samples, standards and blanks (100 μl) were added to the anti-Aβ42-coated plate supplied with the kit (the capture antibody selectively recognizes the C-terminal end of the antigen). The plate was allowed to incubate 3 H at 25° C. in order to allow formation of the antibody-amyloid complex. Following this incubation and subsequent wash steps a selective anti-Aβ-antibody conjugate (biotinylated 3D6) was added and incubated for a minimum of 1 Hour in order to allow formation of the antibody-Amyloid-antibody-complex. After incubation and appropriate wash steps, a Streptavidine-Peroxidase-Conjugate was added, followed 30 minutes later by an addition of 3,3′,5,5′-tetramethylbenzidine (TMB)/peroxide mixture, resulting in the conversion of the substrate into a coloured product. This reaction was stopped by the addition of sulfuric acid (0.9 N) and the colour intensity was measured by means of photometry with an ELISA-reader with a 450 nm filter.
(§3) To obtain the values reported in Table 7a, the sigmoidal dose response curves were analysed by computerised curve-fitting, with percent of inhibition plotted against compound concentration. A 4-parameter equation (model 205) in XLfit was used to determine the IC50. The top and the bottom of the curve were fixed to 100 and 0, respectively, and the hill slope was fixed to 1. The IC50 represents the concentration of a compound that is required for inhibiting a biological effect by 50% (Here, it is the concentration where Aβ peptide level is reduced by 50%).
(§4) To obtain the values reported in Table 7b, the data were calculated as percentage of the maximum amount of amyloid Beta 42 measured in the absence of the test compound. The sigmoidal dose response curves were analyzed using non-linear regression analysis with percentage of the control plotted against the log concentration of the compound. A 4-parameter equation was used to determine the IC50. The values reported in Table 7b are averaged IC50 values.

[2] = tested on: Aβtotal; assay: Method 1: Aβtotal sandwich ELISA in supernatant of SKNBE2 cells carrying APP 695-wild type (Tables 7a, 7b); format: cell-based
Method: as §1, §2
To quantify the amount of Aβtotal in the cell supernatant, samples and standards were added to a 6E10-coated plate. The plate was allowed to incubate overnight at 4° C. in order to allow formation of the antibody-amyloid complex. Following this incubation and subsequent wash steps a selective anti-Aβ-antibody conjugate (biotinylated 4G8) was added and incubated for a minimum of 1 Hour in order to allow formation of the antibody-Amyloid-antibody-complex. After incubation and appropriate wash steps, a Streptavidine-Peroxidase-Conjugate was added, followed 30 minutes later by an addition of Quanta Blu fluorogenic peroxidase substrate according to the manufacturer's instructions (Pierce Corp., Rockford, Ill.).
as §3, §4

[3] = Table 7b, averaged IC50, non-linear regression of percentage of control vs log concentration, 4-parameter equation
[4] = Table 7a, SKNBE2 cells, compounds 18 h, XLfit 4-parameter fit of percent inhibition, top/bottom fixed to 100/0, hill slope 1
[5] = Homo sapiens, SKNBE2, Table 7b, averaged IC50, non-linear regression of percentage of control vs log concentration, 4-parameter equation
[6] = Homo sapiens, Table 7a, SKNBE2 cells, compounds 18 h, XLfit 4-parameter fit of percent inhibition, top/bottom fixed to 100/0, hill slope 1

Compound | IC50 [1, 3] | IC50 [2, 3] | also measured
Cc1ncc(-c2ccc(Nc3cccn4cc(-c5ccc(F)cc5C)nc34)cc2)o1 [Compound 46] | 110 nM | > 3000 nM | –
Cc1ncc(-c2ccc(Nc3nccc4c3nc(-c3ccc(F)cc3F)n4C)cc2)o1 [Compound 53] | 1900 nM | > 10000 nM | –
COc1cc(Nc2nccc3c2nc(-c2ccc(F)cc2F)n3C)ccc1-c1cnc(C)s1 [Compound 78] | 275 nM | > 3000 nM | –
COc1cc(Nc2cc(F)cc3c2nc(N(C)CC(C)C)n3C)ccc1-c1cnc(C)o1 [Compound 108] | 132 nM | > 10000 nM | –
Cc1ncc(-c2ccc(Nc3cccn4cc(-c5ccc(F)cc5)nc34)cc2)o1 [Compound 42] | 123 nM | > 3000 nM | IC50 [1, 4]: 96 nM; IC50 [2, 4]: > 3000 nM
Cc1ncc(-c2ccc(Nc3nccc4c3nc(-c3ccc(F)cc3)n4C)cc2)o1 [Compound 23] | 398 nM | > 3000 nM | IC50 [1, 4]: 417 nM; IC50 [2, 4]: > 3000 nM
COc1cccc(-c2nc3c(Nc4ccc(-c5ocnc5C)c(OC)c4)cccc3n2C)c1 [Compound 20] | 17 nM | > 1000 nM | IC50 [1, 4]: 13 nM; IC50 [2, 4]: > 1000 nM
COc1cc(Nc2cc(CN)cc3c2nc(-c2ccc(F)cc2)n3C)ccc1-c1ocnc1C [Compound 120] | – | – | IC50 [1, 5]: 324 nM; IC50 [2, 5]: > 3000 nM
CCn1c(CC2CC2)nc2c(Nc3ccc(-c4cnc(C)o4)c(OC)c3)cccc21 [Compound 64] | 68 nM | > 3000 nM | –
Cc1ccc(-c2cn3cccc(Nc4ccc(-c5cnc(C)o5)cc4)c3n2)c(F)c1 [Compound 47] | 447 nM | > 3000 nM | IC50 [1, 4]: 486 nM; IC50 [2, 4]: > 3000 nM
COc1cc(Nc2cccc3c2nc(-c2ccc(F)cc2)n3C)ccc1-c1ncnn1C [Compound 75] | 1150 nM | > 3000 nM | –
Cc1cc(F)ccc1-c1cn2cccc(Nc3ccc(-c4ocnc4C)nc3)c2n1 [Compound 44] | 138 nM | > 10000 nM | IC50 [1, 4]: 140 nM; IC50 [2, 4]: > 10000 nM
Cc1ncc(-c2ccc(Nc3nccn4cc(-c5ccc(F)cc5C)nc34)cc2)o1 [Compound 57] | 1070 nM | > 10000 nM | –
C=C(C)c1c(-c2ccc(F)cc2)nc2c(Nc3ccc(-c4cnc(C)o4)cc3)cccn12 [Compound 177] | – | – | IC50 [1, 5]: 105 nM; IC50 [2, 5]: > 3000 nM
Cc1ncc(-c2ccc(Nc3cc(C(F)(F)F)cc4c3nc(C3CCOCC3)n4C)cc2)o1 [Compound 100] | 2240 nM | 25100 nM | –
COc1cc(Nc2cccc3c2nc(-c2ccc(F)cc2)n3C(C)C)ccc1-c1cnc(C)s1 [Compound 77] | 43 nM | > 3000 nM | –
Cc1nc(C)c(-c2ccc(Nc3cccc4c3nc(-c3ccc(F)cc3)n4C)cc2)o1 [Compound 83] | 59 nM | > 3000 nM | –
COc1cccc(-c2nc3c(Nc4ccc(-c5cnc(C)s5)c(OC)c4)cccn3c2C)c1 [Compound 4] | – | – | IC50 [1, 5]: 63 nM; IC50 [1, 6]: 67 nM; IC50 [2, 5]: > 3000 nM; IC50 [2, 6]: > 3000 nM
COc1cc(Nc2cccc3c2nc(-c2ccc(F)cc2)n3C)ccc1-c1ccnn1C [Compound 9] | – | – | IC50 [1, 5]: 240 nM; IC50 [1, 6]: 399 nM; IC50 [2, 5]: > 3000 nM; IC50 [2, 6]: > 3000 nM
COc1cc(Nc2nc(C)cc3c2nc(-c2cccc(OC(C)C)c2)n3C)ccc1-c1cnc(C)o1 [Compound 102] | 24 nM | > 3000 nM | –
COc1cccc(-c2nc3c(Nc4ccc(-c5cnc(C)o5)nc4)cc(C#N)cc3n2C)c1 [Compound 103] | 36 nM | > 3000 nM | –
Cc1ccc(C(F)(F)F)cc1-c1cn2cccc(Nc3ccc(-c4ocnc4C)nc3)c2n1 [Compound 51] | 72 nM | > 3000 nM | –
Cc1ncc(-c2ccc(Nc3cccc4c3nc(-c3ccc(F)cc3)n4C(C)C)nc2)o1 [Compound 15] | – | – | IC50 [1, 5]: 100 nM; IC50 [2, 5]: > 3000 nM
Cn1cc(-c2ccc(Nc3cccc4c3nc(-c3ccc(F)cc3)n4C)cc2)cn1 [Compound 67] | 65 nM | > 3000 nM | –
COc1cccc(-c2nc3c(Nc4ccc(-c5sc(C)nc5C)c(OC)c4)cccn3c2C)c1 [Compound 5] | – | – | IC50 [1, 5]: 78 nM; IC50 [1, 6]: 63 nM; IC50 [2, 5]: > 3000 nM; IC50 [2, 6]: > 3000 nM
Cn1nccc1-c1ccc(Nc2cccc3c2nc(-c2ccc(F)cc2)n3C)cc1 [Compound 72] | 955 nM | > 3000 nM | –
COc1cc(Nc2cccn3cc(-c4ccc(F)cc4)nc23)ccc1-c1oc(C)nc1C [Compound 7] | – | – | IC50 [1, 5]: 302 nM; IC50 [1, 6]: 334 nM; IC50 [2, 5]: > 10000 nM; IC50 [2, 6]: > 10000 nM
Cn1cc(-c2ccc(Nc3cccc4c3nc(-c3ccc(F)cc3)n4C)cn2)cn1 [Compound 70] | 76 nM | > 3000 nM | –
COc1cc(Nc2nc(C3CC3)cc3c2nc(-c2ccc(F)cc2)n3C)ccc1-c1cnc(C)o1 [Compound 94] | 83 nM | > 3000 nM | –

Further lines, with some results ahead:

IC50 [1, 3] | IC50 [2, 3] | Compound | also measured
468 nM | 13800 nM | COc1cc(Nc2cccn3c(C)c(C)nc23)ccc1-c1ocnc1C [Compound 144] | –
72 nM | > 3000 nM | Cc1ncoc1-c1ccc(Nc2cc(F)cc3c2nc(-c2ccccc2Cl)n3C)cn1 [Compound 114] | –
> 3000 nM | > 3000 nM | Cc1nc2c(Nc3ccc(-c4cnc(C(C)C)o4)cc3)cccn2c1C [Compound 180] | –
240 nM | > 30000 nM | COc1cc(Nc2cncc3c2nc(-c2ccc(F)cc2)n3C)ccc1-c1ocnc1C [Compound 199] | –
145 nM | 2820 nM | COc1cccc(-c2nc3c(Nc4ccc(-c5cnc(C)o5)c(F)c4)nccc3n2C)c1 [Compound 109] | –
47 nM | > 3000 nM | COc1cc(Nc2cc(C)cn3cc(-c4ccc(F)cc4C)nc23)ccc1-c1ocnc1C [Compound 149] | –
437 nM | 8130 nM | COc1cc(Nc2cc(CN)cn3cc(-c4ccc(F)cc4C)nc23)ccc1-c1ocnc1C [Compound 150] | –
85 nM | > 3000 nM | Cc1ncc(-c2ccc(Nc3cc(F)cn4cc(CC(C)C)nc34)cc2)o1 [Compound 178] | –
23 nM | > 3000 nM | COc1cccc(-c2nc3c(Nc4ccc(-c5ocnc5C)cc4)cccn3c2C)c1 [Compound 152] | –
1320 nM | > 3000 nM | COc1cc(Nc2nc(C3CC3)cn3cc(C)nc23)ccc1-c1ocnc1C [Compound 153] | –
389 nM | 14800 nM | COc1cc(Nc2cccn3cc(C4CCOCC4)nc23)ccc1-c1ocnc1C [Compound 155] | –
355 nM | > 30000 nM | COc1cc(Nc2cc(C#N)cn3cc(-c4ccc(F)cc4C)nc23)ccc1-c1ocnc1C [Compound 146] | –
19 nM | > 3000 nM | COc1cc(Nc2cc(C)nc3c2nc(-c2ccc(F)cc2)n3C)ccc1-c1cnc(C)o1 [Compound 193] | –
13 nM | > 3000 nM | COc1cc(Nc2cc(C3CC3)nc3c2nc(-c2ccc(F)cc2)n3C)ccc1-c1cnc(C)o1 [Compound 192] | –
468 nM | > 10000 nM | COc1cc(Nc2cc(C(F)(F)F)cn3c(C)c(C)nc23)ccc1-c1ocnc1C [Compound 142] | –
28 nM | > 1000 nM | Cc1ncoc1-c1ccc(Nc2cccc3c2nc(-c2cccc(Cl)c2)n3C(C)C)cn1 [Compound 112] | –
724 nM | > 10000 nM | Cc1ncoc1-c1ccc(Nc2nccc3c2nc(-c2ccccc2Cl)n3C)cn1 [Compound 117] | –
